From US20260200911A1, “NOVEL COMPOUNDS” (Neurosterix Pharma Sarl., priority 2022, published 2026)

Molecular target: T1, human mGlu7 (Homo sapiens, UniProt Q14831)
T1 construct: expressed in transfected cells
Test: Fluorescent cell based Ca2+ mobilization assay (FLIPR) on HEK-293 cells expressing human mGlu7
Details: HEK-293 cells expressing hmGlu7; inhibition of EC80 L-AP4 response; mean of at least three independent experiments in duplicate; read-out: Ca^2+ Flux (mean IC50)
Text: mGlu7 Assay on HEK-Expressing Human mGlu7
The cDNA encoding the human metabotropic glutamate 7 receptor (hmGlu7), (accession number NM_181874.2, NCBI Nucleotide database browser), was subcloned into an expression vector containing also the hygromycin resistance gene. In parallel, the cDNA encoding a G protein allowing redirection of the activation signal to intracellular calcium flux was subcloned into a different expression vector containing also the Puromycin resistance gene. Transfection of both these vectors into HEK293 cells with PolyFect reagent (Qiagen) according to supplier's protocol, and hygromycin and puromycin treatment allowed selection of antibiotic resistant cells which had integrated stably one or more copies of the plasmids. Positive cellular clones expressing hmGlu7 were identified in a functional assay measuring changes in calcium fluxes in response to glutamate and L-AP4 or known mGlu7 orthosteric antagonists.
HEK-293 cells expressing hmGlu7 were maintained in media containing DMEM, Fetal Bovine Serum (10%), Glutamax™ (2 mM), penicillin (100 units/mL), streptomycin (100 μg/mL), geneticin (100 μg/mL) and hygromycin-B (40 μg/mL) and puromycin (1 μg/mL) at 37° C. with 5% CO2 in a humidified atmosphere.
Human mGlu7 HEK-293 cells were plated out 24 hours prior to a fluorescent cell-based calcium mobilization assay using FLIPR^384 assay (Molecular Device, Sunnyvale, CA, USA) in black-walled, clear-bottomed, poly-L-ornithine-coated 384-well plates at a density of 25,000 cells/well in a glutamine/glutamate free DMEM medium containing fetal bovine serum (10%), penicillin (100 units/mL), streptomycin (100 μg/mL) and doxycyline (1 μg/ml) at 37° C. with 5% CO2 in a humidified atmosphere.
On the day of the assay, the medium was aspirated and the cells were loaded with a 3 μM solution of Fluo4-AM (LuBioScience, Lucerne, Switzerland) in 0.03% pluronic acid. After 1 hour at 37° C./5% CO2, the non incorporated dye was removed by washing cell plate with the assay buffer. All assays were performed in a pH 7.4 buffered-solution containing 20 mM HEPES, 143 mM NaCl, 6 mM KCl, 1 mM MgSO4, 1 mM CaCl2, 0.125 mM sulfinpyrazone and 0.1% glucose.
After 10 s of basal fluorescence recording, various concentrations of the compounds of the invention were added to the cells. Changes in fluorescence levels were first monitored for 180 s in order to detect any agonist activity of the compounds. Then the cells were stimulated by an EC80 L-AP4 concentration for an additional 110 s in order to measure inhibiting activities of the compounds of the invention. EC80 L-AP4 concentration is the concentration giving 80% of the maximal glutamate response.
The concentration-response curves of L-AP4 or representative compounds of the present invention were generated using the Prism GraphPad software (Graph Pad Inc, San Diego, USA). The curves were fitted to a four-parameter logistic equation:
(Y=Bottom+(Top−Bottom)/(1+10^((Log IC50−X)*Hill Slope)
allowing determination of IC50 values.
The Table 3 below represents the mean IC50 obtained from at least three independent experiments of selected molecules performed in duplicate.

T1 sequence (Q14831 35-922 isoform Q14831-2 limits assumed): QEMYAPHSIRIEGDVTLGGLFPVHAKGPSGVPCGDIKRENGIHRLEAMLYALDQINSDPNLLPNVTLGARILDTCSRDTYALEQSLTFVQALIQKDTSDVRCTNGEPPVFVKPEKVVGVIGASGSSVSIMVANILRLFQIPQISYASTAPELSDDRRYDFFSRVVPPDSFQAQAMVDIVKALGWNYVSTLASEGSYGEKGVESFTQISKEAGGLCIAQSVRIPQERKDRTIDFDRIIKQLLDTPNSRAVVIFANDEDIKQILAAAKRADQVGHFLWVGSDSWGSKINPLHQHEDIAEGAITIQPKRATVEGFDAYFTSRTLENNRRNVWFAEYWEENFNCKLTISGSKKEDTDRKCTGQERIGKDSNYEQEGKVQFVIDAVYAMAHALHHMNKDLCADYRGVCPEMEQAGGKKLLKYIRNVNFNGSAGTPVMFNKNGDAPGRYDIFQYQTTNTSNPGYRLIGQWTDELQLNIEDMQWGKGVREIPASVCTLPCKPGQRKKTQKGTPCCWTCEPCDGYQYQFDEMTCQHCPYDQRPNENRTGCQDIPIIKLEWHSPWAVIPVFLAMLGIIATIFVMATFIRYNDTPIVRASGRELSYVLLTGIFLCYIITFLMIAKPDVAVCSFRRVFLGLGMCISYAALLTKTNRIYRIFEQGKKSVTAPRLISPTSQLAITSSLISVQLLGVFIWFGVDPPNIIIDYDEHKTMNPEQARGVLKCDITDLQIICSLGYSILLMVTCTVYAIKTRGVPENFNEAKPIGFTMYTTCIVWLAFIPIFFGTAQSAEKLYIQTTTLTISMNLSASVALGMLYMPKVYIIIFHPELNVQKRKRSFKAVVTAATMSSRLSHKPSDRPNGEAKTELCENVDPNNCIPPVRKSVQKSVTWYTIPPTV

IC50 [nM] | Compound
< 100 | Cc1ccc(-c2ccc3nn(-c4ccccn4)c(=O)n3c2)c(C)c1 [Compound 1-1, 6-(2,4-dimethylphenyl)-2-(pyridin-2-yl)-[1,2,4]triazolo[4,3-a]pyridin-3(2H)-one]
100 to 1000 | Cc1ccc(-c2ccc3nn(-c4ncccn4)c(=O)n3c2)c(C)c1 [Compound 1-2, 6-(2,4-dimethylphenyl)-2-(pyrimidin-2-yl)-[1,2,4]triazolo[4,3-a]pyridin-3(2H)-one]
100 to 1000 | O=c1n(-c2ccccn2)nc2ccc(-c3cccc(N4CCC4)c3)cn12 [Compound 1-4, 6-(3-(azetidin-1-yl)phenyl)-2-(pyridin-2-yl)-[1,2,4]triazolo[4,3-a]pyridin-3(2H)-one]
100 to 1000 | COc1cccc(-c2ccc3nn(-c4ccccn4)c(=O)n3c2)c1 [Compound 1-5, 6-(3-methoxyphenyl)-2-(pyridin-2-yl)-[1,2,4]triazolo[4,3-a]pyridin-3(2H)-one]
100 to 1000 | O=c1n(-c2ncccn2)nc2ccc(-c3cccc(N4CCC4)c3)cn12 [Compound 1-6, 6-(3-(azetidin-1-yl)phenyl)-2-(pyrimidin-2-yl)-[1,2,4]triazolo[4,3-a]pyridin-3(2H)-one]
1000 to 10000 | COc1cccc(-c2ccc3nn(-c4ncccn4)c(=O)n3c2)c1 [Compound 1-7, 6-(3-methoxyphenyl)-2-(pyrimidin-2-yl)-[1,2,4]triazolo[4,3-a]pyridin-3(2H)-one]
100 to 1000 | COc1cccc(-c2ccc3nn(-c4ncccn4)c(=O)n3c2)c1C [Compound 1-11, 6-(3-methoxy-2-methylphenyl)-2-(pyrimidin-2-yl)-[1,2,4]triazolo[4,3-a]pyridin-3(2H)-one]
100 to 1000 | O=c1n(-c2ncccn2)nc2ccc(-c3cccc(OC4CC4)c3)cn12 [Compound 1-12, 6-(3-cyclopropoxyphenyl)-2-(pyrimidin-2-yl)-[1,2,4]triazolo[4,3-a]pyridin-3(2H)-one]
100 to 1000 | O=c1n(-c2ccccn2)nc2ccc(-c3cccc(OC4CC4)c3)cn12 [Compound 1-13, 6-(3-cyclopropoxyphenyl)-2-(pyridin-2-yl)-[1,2,4]triazolo[4,3-a]pyridin-3(2H)-one]
1000 to 10000 | COc1ccc(-c2ccc3nn(-c4ccccn4)c(=O)n3c2)cc1 [Compound 1-15, 6-(4-methoxyphenyl)-2-(pyridin-2-yl)-[1,2,4]triazolo[4,3-a]pyridin-3(2H)-one]
100 to 1000 | COc1ccc(-c2ccc3nn(-c4ccccn4)c(=O)n3c2)c(C)c1 [Compound 1-20, 6-(4-methoxy-2-methylphenyl)-2-(pyridin-2-yl)-[1,2,4]triazolo[4,3-a]pyridin-3(2H)-one]
1000 to 10000 | COc1ccc(-c2ccc3nn(-c4ncccn4)c(=O)n3c2)c(C)c1 [Compound 1-21, 6-(4-methoxy-2-methylphenyl)-2-(pyrimidin-2-yl)-[1,2,4]triazolo[4,3-a]pyridin-3(2H)-one]

Further lines, the molecule ahead of its results:

Compound | IC50 [nM]
Cc1ccc(C2CCc3nn(-c4ccccn4)c(=O)n3C2)c(C)c1 (single isomer, unassigned; (+)) [Compound 1-18, (+)6-(2,4-dimethylphenyl)-2-(pyridin-2-yl)-5,6,7,8-tetrahydro-[1,2,4]triazolo[4,3-a]pyridin-3(2H)-one] | < 100
Cc1ccc(C2CCc3nn(-c4ccccn4)c(=O)n3C2)c(C)c1 (single isomer, unassigned; (-)) [Compound 1-17, (−)6-(2,4-dimethylphenyl)-2-(pyridin-2-yl)-5,6,7,8-tetrahydro-[1,2,4]triazolo[4,3-a]pyridin-3(2H)-one] | 1000 to 10000
Cc1ccc(C2CCc3nn(-c4ccccn4)c(=O)n3C2)c(C)c1 (stereo not shown) [Compound 1-3, 6-(2,4-dimethylphenyl)-2-(pyridin-2-yl)-5,6,7,8-tetrahydro-[1,2,4]triazolo[4,3-a]pyridin-3(2H)-one] | < 100
COc1cccc(C2CCc3nn(-c4ccccn4)c(=O)n3C2)c1 (stereo not shown) [Compound 1-8, 6-(3-methoxyphenyl)-2-(pyridin-2-yl)-5,6,7,8-tetrahydro-[1,2,4]triazolo[4,3-a]pyridin-3(2H)-one] | 1000 to 10000
COc1cccc(-c2ccc3nn(-c4ccccn4)c(=O)n3c2)c1C [Compound 1-9, 6-(3-methoxy-2-methylphenyl)-2-(pyridin-2-yl)-[1,2,4]triazolo[4,3-a]pyridin-3(2H)-one] | < 100
COc1cccc(C2CCc3nn(-c4ccccn4)c(=O)n3C2)c1C (stereo not shown) [Compound 1-10, 6-(3-methoxy-2-methylphenyl)-2-(pyridin-2-yl)-5,6,7,8-tetrahydro-[1,2,4]triazolo[4,3-a]pyridin-3(2H)-one] | 100 to 1000
O=c1n(-c2ccccn2)nc2n1CC(c1cccc(OC3CC3)c1)CC2 (stereo not shown) [Compound 1-14, 6-(3-cyclopropoxyphenyl)-2-(pyridin-2-yl)-5,6,7,8-tetrahydro-[1,2,4]triazolo[4,3-a]pyridin-3(2H)-one] | 100 to 1000
COc1ccc(C2CCc3nn(-c4ccccn4)c(=O)n3C2)cc1 (stereo not shown) [Compound 1-16, 6-(4-methoxyphenyl)-2-(pyridin-2-yl)-5,6,7,8-tetrahydro-[1,2,4]triazolo[4,3-a]pyridin-3(2H)-one] | 1000 to 10000
COc1ccccc1-c1ccc2nn(-c3ccccn3)c(=O)n2c1 [Compound 1-19, 6-(2-methoxyphenyl)-2-(pyridin-2-yl)-[1,2,4]triazolo[4,3-a]pyridin-3(2H)-one] | 1000 to 10000
COc1ccc(C2CCc3nn(-c4ccccn4)c(=O)n3C2)c(C)c1 (stereo not shown) [Compound 1-22, 6-(4-methoxy-2-methylphenyl)-2-(pyridin-2-yl)-5,6,7,8-tetrahydro-[1,2,4]triazolo[4,3-a]pyridin-3(2H)-one] | 100 to 1000
